Experimental data reported in patent US20260325506A1, “METHODS OF TREATING POST-TRAUMATIC STRESS DISORDER AND ALCOHOL USE DISORDER” (FLORIDA ATLANTIC UNIVERSITY RESEARCH CORPORATION, priority 2023, published 2026).
Entries after “also recorded” stand apart in the source; their conditions may differ.

Tests used:
mu opioid receptor [1] = details: less than buprenorphine; cited from earlier work
kappa receptor = details: PPL-138 like buprenorphine; cited from earlier work
N/OFQ = experiment: serum N/OFQ levels after SPS; format: in vivo, Sprague Dawley (SD) rats; details: end of pilot study, compared to SPS, p<0.05 (Tukey); ANOVA F (2, 12)=4.147, p=0.0421
Procedure: (§1) SPS procedure: 2 h of complete restraint in disposable plastic holders, followed by grouped (2-3 rats) forced swim for 20 min in a cylindrical tank (46 cm tall×20 cm in diameter) filled with 22-25° C. water to a depth of 30 cm. After 15 min recovery and drying period, rats are exposed to diethyl ether until loss of consciousness and left undisturbed (except for drug or vehicle injection) and alone for 7 days, after which they are pair housed. All rats are housed with soft bedding, observed for signs of pain or discomfort: weight loss, lack of grooming, or porphyrin staining; any such rats is excluded from study.
(§2) Drug Treatment: PPL-138 (0.3 and 1 mg/kg) is dissolved in the same vehicle as 10 mg/kg SB (3% DMSO+97% of 0.5% hydroxypropyl cellulose (HPC)). Drug treatment (i.p.) begins immediately after exposure to ether and continues every other day thereafter. Ctr and SPS rats receive vehicle (3% DMSO+97% 0.5% HPC) injections.
(§3) Degree of enhanced nociceptive sensitivity by SPS to tactile and thermal stimuli were reduced in this cohort likely a result of group housing during the first 7 days instead of our usual solo housing (FIG. 2). […] PPL-138 reduced serum N/OFQ levels compared to SPS (p<0.05 by Tukey's post-hoc test).

[2] = tested on: SPS-induced thermal hyperalgesia in Sprague Dawley (SD) rats; experiment: thermal sensitivity (hyperalgesia), paw withdrawal latency (PWL) after SPS; format: in vivo; details: for thermal hyperalgesia (PWL, FIG. 4D): female SPS rats; for thermal hyperalgesia (PWL, FIG. 4D) / thermal hyperalgesia (PWL, FIG. 4C): 28 days; for thermal hyperalgesia (PWL, FIG. 4C): male SPS rats
Procedure: as §1, §2, §3
(§4) Control (Ctr) and SPS-treated male and female SD rats are treated 3 times each week with Veh, PPL-138 (0.3 and 1 mg/kg, s.c.) or the NOP antagonist SB612111 (SB; 3 mg/kg, i.p.). […] SB alleviates TBI- and 6-OHDA Parkinson disease model-induced locomotor deficits and brain hypoxia.
(§5) Sensitivity to tactile and thermal sensitivity in males and females was determined by paw withdrawal threshold to increasing pressure (PWT; tactile) and paw withdrawal latency to a thermal stimulus (PWL) (FIG. 4). There was a significant interaction between time and treatment for sensitivity to both tactile (A) and thermal (C) stimuli for males ([F (28, 228)=1.708, p=0.0182] and [F (28, 228)=4.276, p<0.0001]), respectively, as well as for thermal sensitivity (D) in females [F (28, 164)=2.286, p=0.0007]. […] Allodynia was reversed by 0.3 mg/kg PPL-138 and by SB in males, and by 1 mg/kg PPL-138 in females (#p<0.05). Thermal hyperalgesia was reversed by both doses of PPL-138 and SB in males, and by 1 mg/kg PPL-138 and SB in females.

delta receptor = details: PPL-138 like buprenorphine; cited from earlier work
NOP receptor [3] = details: all four members of the opioid receptor family; cited from earlier work
[4] = tested on: SPS-induced allodynia in Sprague Dawley (SD) rats; experiment: tactile sensitivity (allodynia), paw withdrawal threshold (PWT) after SPS; format: in vivo; details: for paw withdrawal threshold, allodynia (FIG. 2A): male SD rats, 1 mg/kg i.p., days 14, 21 and 28, SPS vs SPS+PPL-138, p<0.05 (Tukey); for allodynia (PWT, FIG. 4A): male SPS rats
Procedure: as §1, §2, §3, §4, §5

delta opioid receptor = details: all four members of the opioid receptor family; cited from earlier work
mu opioid receptor [5] = details: all four members of the opioid receptor family; cited from earlier work
NOP receptor [6] = details: higher than buprenorphine; cited from earlier work
kappa opioid receptor = details: all four members of the opioid receptor family; cited from earlier work
[7] = tested on: SPS induced anxiety-like behaviors in Sprague Dawley (SD) rats; experiment: Elevated Plus Maze (EPM), SPS induced anxiety-like behaviors; format: in vivo; details: for Anxiety index (FIG. 3B): female SD rats (n=6, not yet fully powered)
Procedure: as §1
Elevated Plus Maze (EPM): Rats will be tested for anxiety-like behaviors. The percentage of open arm entries (number of entries into the open arms divided by total number of entries in both arms), time spent in the open arms, total distance traveled, and total time spent immobile are noted. The anxiety index (AI) is calculated where total exploration on the maze represents the total number of arm entries: Anxiety Index=1−[[(time spent in open arms/total time on the maze (300 sec))+(number of entries into open arms/total number of arm entries)]/2]. Each animal is tested at 9 and 30 days post-SPS.
as §2
Anxiety index reflects a combination of three anxiety-like behaviors.
as §4

[8] = tested on: SPS-induced allodynia and anxiety-like behaviors; details: less selective NOP receptor antagonist than SB; cited from earlier work
[9] = tested on: 6-OHDA Parkinson disease model-induced locomotor deficits and brain hypoxia; details: cited from earlier work
[10] = tested on: TBI-induced locomotor deficits and brain hypoxia; details: cited from earlier work
[11] = tested on: irritable bowel syndrome (IBS); details: models of irritable bowel syndrome (IBS); cited from earlier work
neuropathy = details: models of neuropathy; cited from earlier work

SMILES: O=C(CCc1ccccc1)O[C@@]12CCC(=O)[C@@H]3Oc4c(O)ccc5c4[C@@]31CCN(CC1CC1)[C@@H]2C5 [PPL-138, 14β-(3-phenylpropanoyl)-17-cyclopropylmethyl-7,8-dihydronoroxymorphinone]
- efficacy at mu (mu opioid receptor [1]): very low efficacy
- activity at kappa receptor (kappa receptor): antagonist
- serum N/OFQ levels (N/OFQ): reduced
- hyperalgesia (FIG. 4) ([2]; SD rats, overall statement): reduces
- thermal hyperalgesia (PWL, FIG. 4D) ([2]; PPL-138 1 mg/kg s.c.): reversed
- thermal sensitivity (FIG. 2B) ([2]; male SD rats, 1 mg/kg i.p., treatment F (2, 12)=7.56, p<0.01): reversed
- thermal hyperalgesia (PWL, FIG. 4C) ([2]; PPL-138 0.3 mg/kg s.c. (both doses)): reversed
- thermal hyperalgesia (PWL, FIG. 4C) ([2]; PPL-138 1 mg/kg s.c. (both doses)): reversed
- activity at delta receptor (delta receptor): antagonist
- Ki (NOP receptor [3]): < 0.01 µM
- allodynia (FIG. 4) ([4]; SD rats, overall statement): reduces
- allodynia (PWT, FIG. 4B) ([4]; female SPS rats, PPL-138 1 mg/kg s.c., 28 days, #p<0.05): reversed
- paw withdrawal threshold, allodynia (FIG. 2A) ([4]; 1 mg/kg): SPS rats had significantly lower paw withdrawal threshold
- paw withdrawal threshold, allodynia (FIG. 2A) ([4]; listed as PPL 138, 1 mg/kg): reversed
- allodynia (PWT, FIG. 4A) ([4]; PPL-138 0.3 mg/kg s.c., 28 days, #p<0.05): reversed
- development of PTSD-induced nociceptive sensitivity ([4]; males and females, overall conclusion (tactile and thermal)): reverses
- Ki (delta opioid receptor): < 0.01 µM
- Ki (mu opioid receptor [5]): < 0.01 µM
- partial agonist activity at NOP receptor (NOP receptor [6]): partial agonist
- Ki (kappa opioid receptor): < 0.01 µM
- Anxiety index (FIG. 3B) ([7]; PPL-138 1 mg/kg s.c., day 30 post-SPS): significant effect
- anxiety-like behaviors (FIG. 3B) ([7]; female SD rats, overall statement): reduces
- distance travelled ([7]; male SD rats, 1 mg/kg i.p., between groups (Ctr, SPS, SPS+PPL-138)): no differences
- open arm time (FIG. 1B) ([7]; male SD rats, 1 mg/kg i.p., days 9 and 30 post-SPS, treatment F (2,12)=5.066, p<0.05, PPL 138+SPS vs SPS *p<0.05, **p<0.01 (Tukey), 1 mg/kg): increased; also recorded: significant effect
- anxiety index (FIG. 1A) ([7]; male SD rats, 1 mg/kg i.p., days 9 and 30 post-SPS, treatment F (2,12)=9.912, p<0.005, PPL 138+SPS vs SPS *p<0.05, **p<0.01 (Tukey), 1 mg/kg): reduced; also recorded: significant effect
- open arm entries (FIG. 1C) ([7]; male SD rats, 1 mg/kg i.p., days 9 and 30 post-SPS, treatment F (2,12)=11.99, p<0.005, PPL 138+SPS vs SPS *p<0.05, **p<0.01 (Tukey), 1 mg/kg): increased; also recorded: significant effect
- Anxiety index (FIG. 3A) ([7]; male SD rats, PPL-138 0.3 mg/kg s.c., day 30 post-SPS): significant effects
- Anxiety index (FIG. 3A) ([7]; male SD rats, PPL-138 1 mg/kg s.c., day 9 post-SPS): significant effect
- Anxiety index (FIG. 3A) ([7]; male SD rats, PPL-138 1 mg/kg s.c., day 30 post-SPS): significant effects
- anxiety-like behaviors (FIG. 3A) ([7]; male SD rats, overall statement): reduces
- development of PTSD-induced anxiety-like behaviors ([7]; males and females, overall conclusion): reverses

SMILES: CCc1ccc(OCc2ccccc2C(=O)Nc2ccc3nc(C)cc(N)c3c2)cc1 [JTC-801]
- SPS-induced allodynia [8]: reversed
- SPS-induced anxiety-like behaviors [8]: reversed

SMILES: Cc1cccc2c1CC[C@H](CN1CCC(c3c(Cl)cccc3Cl)CC1)C[C@@H]2O [SB612111]
- brain hypoxia [9]: alleviates
- locomotor deficits [9]: alleviates
- thermal hyperalgesia (PWL, FIG. 4D) ([2]; SB 3 mg/kg i.p.): reversed
- thermal hyperalgesia (PWL, FIG. 4C) ([2]; SB 3 mg/kg i.p.): reversed
- allodynia (PWT, FIG. 4A) ([4]; SB 3 mg/kg i.p., 28 days, #p<0.05): reversed
- brain hypoxia [10]: alleviates
- locomotor deficits [10]: alleviates
- antinociception [11]: produces antinociception
- antinociception (neuropathy): produces antinociception
- Anxiety index (FIG. 3B) ([7]; SB 3 mg/kg i.p., day 9 post-SPS): significant effect
- Anxiety index (FIG. 3A) ([7]; male SD rats, SB 3 mg/kg i.p., day 30 post-SPS): significant effects

SMILES: CO[C@@]12CC[C@@]3(C[C@@H]1[C@](C)(O)C(C)(C)C)[C@H]1Cc4ccc(O)c5c4[C@@]3(CCN1CC1CC1)[C@H]2O5 [buprenorphine, reference compound]
- activity at kappa receptor (kappa receptor): antagonist
- activity at delta receptor (delta receptor): antagonist
